From ChEMBL document CHEMBL1145498, “A systematic interaction map of validated kinase inhibitors with Ser/Thr kinases” (Proc Natl Acad Sci U S A, 2007)

target: Serine/threonine-protein kinase 26 (Homo sapiens) (UniProt Q9P289)
Sequence (Q9P289 2-416 limits assumed): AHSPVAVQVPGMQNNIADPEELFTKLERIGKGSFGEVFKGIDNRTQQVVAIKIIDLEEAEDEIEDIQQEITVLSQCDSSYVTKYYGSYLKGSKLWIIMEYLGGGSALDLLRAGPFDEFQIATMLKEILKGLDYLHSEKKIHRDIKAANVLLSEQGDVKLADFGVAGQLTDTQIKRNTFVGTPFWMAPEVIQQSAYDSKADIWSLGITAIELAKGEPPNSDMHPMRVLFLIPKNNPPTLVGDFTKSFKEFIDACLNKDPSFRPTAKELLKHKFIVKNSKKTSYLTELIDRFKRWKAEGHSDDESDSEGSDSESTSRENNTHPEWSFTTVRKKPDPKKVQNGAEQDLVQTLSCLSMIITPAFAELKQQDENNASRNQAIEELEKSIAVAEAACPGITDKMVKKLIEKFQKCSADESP

ΔTm [°C]	Compound
-0.6	Clc1ccc(Nc2nnc(Cc3ccncc3)c3ccccc23)cc1
-1.3	Nc1nccc(-c2c(-c3ccc(F)cc3)ncn2C2CCNCC2)n1

Compound	ΔTm [°C]
CN1CCC(Nc2ncc3ncnc(Nc4ccc(F)c(Cl)c4)c3n2)CC1 [FALNIDAMOL]	6.7

target: T1, Lymphokine-activated killer T-cell-originated protein kinase (Homo sapiens) (UniProt Q96KB5)
T1 sequence (whole entry): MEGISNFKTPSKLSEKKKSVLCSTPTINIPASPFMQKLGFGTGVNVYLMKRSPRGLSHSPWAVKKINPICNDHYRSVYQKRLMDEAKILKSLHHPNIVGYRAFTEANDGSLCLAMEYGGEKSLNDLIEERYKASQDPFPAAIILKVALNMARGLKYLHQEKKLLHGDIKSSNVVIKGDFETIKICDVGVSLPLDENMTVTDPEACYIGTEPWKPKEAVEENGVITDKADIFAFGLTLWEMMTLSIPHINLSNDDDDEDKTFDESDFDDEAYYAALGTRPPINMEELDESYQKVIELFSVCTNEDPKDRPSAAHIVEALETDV

Compound	ΔTm [°C]
Nc1nccc(-c2c(-c3ccc(F)cc3)ncn2C2CCNCC2)n1	0.5

target: T2, Serine/threonine-protein kinase 17A (Homo sapiens) (UniProt Q9UEE5)
T2 sequence (whole entry): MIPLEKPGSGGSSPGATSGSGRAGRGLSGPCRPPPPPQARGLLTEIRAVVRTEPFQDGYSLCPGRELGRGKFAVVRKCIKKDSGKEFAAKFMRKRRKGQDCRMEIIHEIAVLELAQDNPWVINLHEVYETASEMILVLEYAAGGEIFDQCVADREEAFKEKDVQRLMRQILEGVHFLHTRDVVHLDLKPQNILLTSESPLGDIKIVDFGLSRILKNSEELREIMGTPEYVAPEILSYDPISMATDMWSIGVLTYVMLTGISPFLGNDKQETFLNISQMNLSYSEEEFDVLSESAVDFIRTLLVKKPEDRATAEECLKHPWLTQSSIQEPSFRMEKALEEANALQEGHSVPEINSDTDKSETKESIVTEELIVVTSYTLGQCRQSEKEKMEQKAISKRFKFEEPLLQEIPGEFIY

ΔTm [°C]	Compound
0.4	Nc1nccc(-c2c(-c3ccc(F)cc3)ncn2C2CCNCC2)n1

target: Serine/threonine-protein kinase pim-3 (Homo sapiens) (UniProt Q86V86)

ΔTm [°C]	Compound
-0.4	Clc1ccc(Nc2nnc(Cc3ccncc3)c3ccccc23)cc1
0	Nc1nccc(-c2c(-c3ccc(F)cc3)ncn2C2CCNCC2)n1

Compound	ΔTm [°C]
CN1CCC(Nc2ncc3ncnc(Nc4ccc(F)c(Cl)c4)c3n2)CC1 [FALNIDAMOL]	0.5

target: Ribosomal protein S6 kinase alpha-3 (Homo sapiens) (UniProt P51812)

ΔTm [°C]	Compound
-0.1	Nc1nccc(-c2c(-c3ccc(F)cc3)ncn2C2CCNCC2)n1

target: Serine/threonine-protein kinase 26 (Homo sapiens) (UniProt Q9P289); remark: another data set of the same source

ΔTm [°C]	Compound
2.1	Nc1nccc(-c2c(-c3ccc(F)cc3)ncn2C2CCNCC2)n1

target: Calcium/calmodulin-dependent protein kinase type 1D (Homo sapiens) (UniProt Q8IU85)
Sequence (Q8IU85 whole entry, looked up): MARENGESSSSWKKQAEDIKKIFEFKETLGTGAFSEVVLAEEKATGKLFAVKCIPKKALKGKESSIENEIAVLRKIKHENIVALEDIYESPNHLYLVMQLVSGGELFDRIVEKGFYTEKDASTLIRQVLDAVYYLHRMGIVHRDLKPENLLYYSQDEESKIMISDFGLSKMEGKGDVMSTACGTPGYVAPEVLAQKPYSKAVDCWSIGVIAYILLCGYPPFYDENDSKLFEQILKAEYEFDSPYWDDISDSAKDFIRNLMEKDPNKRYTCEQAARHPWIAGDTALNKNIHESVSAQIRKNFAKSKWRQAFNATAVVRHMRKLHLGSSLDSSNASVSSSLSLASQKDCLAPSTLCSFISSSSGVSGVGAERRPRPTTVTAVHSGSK

ΔTm [°C]	Compound
0.6	Clc1ccc(Nc2nnc(Cc3ccncc3)c3ccccc23)cc1
-0.2	Nc1nccc(-c2c(-c3ccc(F)cc3)ncn2C2CCNCC2)n1

Compound	ΔTm [°C]
CN1CCC(Nc2ncc3ncnc(Nc4ccc(F)c(Cl)c4)c3n2)CC1 [FALNIDAMOL]	0.7

target: Serine/threonine-protein kinase pim-1 (Homo sapiens) (UniProt P11309)
Sequence (P11309 whole entry, looked up): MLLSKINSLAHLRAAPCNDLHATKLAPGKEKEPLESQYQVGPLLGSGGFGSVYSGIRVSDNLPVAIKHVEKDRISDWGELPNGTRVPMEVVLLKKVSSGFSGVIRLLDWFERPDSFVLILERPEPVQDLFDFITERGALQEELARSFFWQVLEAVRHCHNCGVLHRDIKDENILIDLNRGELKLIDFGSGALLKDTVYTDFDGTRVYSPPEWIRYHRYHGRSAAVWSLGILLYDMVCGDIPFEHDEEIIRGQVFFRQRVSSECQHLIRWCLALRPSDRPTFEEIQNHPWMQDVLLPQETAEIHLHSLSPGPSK

ΔTm [°C]	Compound
-0.2	Clc1ccc(Nc2nnc(Cc3ccncc3)c3ccccc23)cc1
-0.1	Nc1nccc(-c2c(-c3ccc(F)cc3)ncn2C2CCNCC2)n1

Compound	ΔTm [°C]
CN1CCC(Nc2ncc3ncnc(Nc4ccc(F)c(Cl)c4)c3n2)CC1 [FALNIDAMOL]	5.2

target: Dual specificity mitogen-activated protein kinase kinase 2 (Homo sapiens, UniProt P36507)
Sequence (P36507 whole entry): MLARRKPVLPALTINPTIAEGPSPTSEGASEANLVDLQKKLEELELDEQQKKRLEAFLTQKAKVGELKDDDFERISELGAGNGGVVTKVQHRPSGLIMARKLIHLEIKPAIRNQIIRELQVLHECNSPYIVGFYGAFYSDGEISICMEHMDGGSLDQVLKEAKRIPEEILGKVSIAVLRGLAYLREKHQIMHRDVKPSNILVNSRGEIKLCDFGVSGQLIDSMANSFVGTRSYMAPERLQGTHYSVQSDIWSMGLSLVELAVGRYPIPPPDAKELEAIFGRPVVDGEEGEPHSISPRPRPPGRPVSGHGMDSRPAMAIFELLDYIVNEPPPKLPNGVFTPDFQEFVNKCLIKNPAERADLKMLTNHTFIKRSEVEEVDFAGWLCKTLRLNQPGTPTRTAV

ΔTm [°C]	Compound
0.5	Clc1ccc(Nc2nnc(Cc3ccncc3)c3ccccc23)cc1
0.1	Nc1nccc(-c2c(-c3ccc(F)cc3)ncn2C2CCNCC2)n1

Compound	ΔTm [°C]
CN1CCC(Nc2ncc3ncnc(Nc4ccc(F)c(Cl)c4)c3n2)CC1 [FALNIDAMOL]	0.9

target: Serine/threonine-protein kinase OSR1 (Homo sapiens) (UniProt O95747)

ΔTm [°C]	Compound
0.8	Clc1ccc(Nc2nnc(Cc3ccncc3)c3ccccc23)cc1
0.3	Nc1nccc(-c2c(-c3ccc(F)cc3)ncn2C2CCNCC2)n1

Compound	ΔTm [°C]
CN1CCC(Nc2ncc3ncnc(Nc4ccc(F)c(Cl)c4)c3n2)CC1 [FALNIDAMOL]	1.4

target: T3, Serine/threonine-protein kinase VRK1 (Homo sapiens) (UniProt Q99986)
T3 sequence (whole entry): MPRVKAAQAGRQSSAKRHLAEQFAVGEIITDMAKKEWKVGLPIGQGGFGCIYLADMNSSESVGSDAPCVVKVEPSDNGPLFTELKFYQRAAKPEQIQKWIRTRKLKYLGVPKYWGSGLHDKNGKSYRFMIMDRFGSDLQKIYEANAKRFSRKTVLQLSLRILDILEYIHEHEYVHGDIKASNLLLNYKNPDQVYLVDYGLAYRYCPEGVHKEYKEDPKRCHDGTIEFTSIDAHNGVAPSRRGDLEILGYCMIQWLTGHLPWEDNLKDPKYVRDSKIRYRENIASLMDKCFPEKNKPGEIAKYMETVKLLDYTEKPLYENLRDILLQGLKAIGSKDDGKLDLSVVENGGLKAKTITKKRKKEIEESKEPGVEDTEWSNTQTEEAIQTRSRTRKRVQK

ΔTm [°C]	Compound
1.1	Nc1nccc(-c2c(-c3ccc(F)cc3)ncn2C2CCNCC2)n1

target: Serine/threonine-protein kinase PAK 5 (Homo sapiens) (UniProt Q9P286)
Sequence (Q9P286 whole entry, looked up): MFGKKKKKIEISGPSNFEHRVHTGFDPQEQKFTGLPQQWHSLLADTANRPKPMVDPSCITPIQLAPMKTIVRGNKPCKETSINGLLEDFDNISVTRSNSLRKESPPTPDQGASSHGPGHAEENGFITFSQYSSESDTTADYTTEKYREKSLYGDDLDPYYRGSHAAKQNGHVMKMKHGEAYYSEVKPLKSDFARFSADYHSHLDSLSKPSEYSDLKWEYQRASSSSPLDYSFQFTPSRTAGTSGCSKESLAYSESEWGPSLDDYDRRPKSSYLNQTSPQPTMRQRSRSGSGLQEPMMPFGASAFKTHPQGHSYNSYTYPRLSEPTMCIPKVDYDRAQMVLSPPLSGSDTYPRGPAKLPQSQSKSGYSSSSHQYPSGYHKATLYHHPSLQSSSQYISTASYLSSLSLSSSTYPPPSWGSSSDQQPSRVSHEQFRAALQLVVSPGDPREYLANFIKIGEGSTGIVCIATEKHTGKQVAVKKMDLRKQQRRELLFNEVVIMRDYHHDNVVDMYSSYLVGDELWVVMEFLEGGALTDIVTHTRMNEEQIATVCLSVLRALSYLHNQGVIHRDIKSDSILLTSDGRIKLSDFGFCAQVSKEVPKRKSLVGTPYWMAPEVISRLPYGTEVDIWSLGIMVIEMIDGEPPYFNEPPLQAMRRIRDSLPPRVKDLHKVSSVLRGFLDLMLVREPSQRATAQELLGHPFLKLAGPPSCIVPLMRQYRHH

ΔTm [°C]	Compound
-0.7	Clc1ccc(Nc2nnc(Cc3ccncc3)c3ccccc23)cc1
0	Nc1nccc(-c2c(-c3ccc(F)cc3)ncn2C2CCNCC2)n1

Compound	ΔTm [°C]
CN1CCC(Nc2ncc3ncnc(Nc4ccc(F)c(Cl)c4)c3n2)CC1 [FALNIDAMOL]	2.5

target: Calcium/calmodulin-dependent protein kinase type II subunit gamma (Homo sapiens) (UniProt Q13555)
Sequence (Q13555 whole entry): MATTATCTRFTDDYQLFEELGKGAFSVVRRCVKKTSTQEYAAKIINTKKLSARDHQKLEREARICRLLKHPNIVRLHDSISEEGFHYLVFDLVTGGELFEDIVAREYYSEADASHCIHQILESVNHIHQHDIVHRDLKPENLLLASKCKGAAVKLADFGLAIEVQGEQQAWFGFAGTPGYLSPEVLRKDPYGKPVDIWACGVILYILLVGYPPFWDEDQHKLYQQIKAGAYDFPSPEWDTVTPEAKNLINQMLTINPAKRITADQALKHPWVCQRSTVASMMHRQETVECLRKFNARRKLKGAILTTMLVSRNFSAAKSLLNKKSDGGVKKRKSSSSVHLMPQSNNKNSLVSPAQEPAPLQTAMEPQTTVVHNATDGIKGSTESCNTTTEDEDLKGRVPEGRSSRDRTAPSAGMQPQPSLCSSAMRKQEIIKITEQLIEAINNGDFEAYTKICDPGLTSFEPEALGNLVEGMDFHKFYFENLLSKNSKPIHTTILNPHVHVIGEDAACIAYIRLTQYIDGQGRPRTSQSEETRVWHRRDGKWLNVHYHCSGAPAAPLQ

ΔTm [°C]	Compound
-0.4	Clc1ccc(Nc2nnc(Cc3ccncc3)c3ccccc23)cc1
0.1	Nc1nccc(-c2c(-c3ccc(F)cc3)ncn2C2CCNCC2)n1

Compound	ΔTm [°C]
CN1CCC(Nc2ncc3ncnc(Nc4ccc(F)c(Cl)c4)c3n2)CC1 [FALNIDAMOL]	1.4

target: Dual specificity protein kinase CLK2 (Homo sapiens) (UniProt P49760)
Sequence (P49760 whole entry, looked up): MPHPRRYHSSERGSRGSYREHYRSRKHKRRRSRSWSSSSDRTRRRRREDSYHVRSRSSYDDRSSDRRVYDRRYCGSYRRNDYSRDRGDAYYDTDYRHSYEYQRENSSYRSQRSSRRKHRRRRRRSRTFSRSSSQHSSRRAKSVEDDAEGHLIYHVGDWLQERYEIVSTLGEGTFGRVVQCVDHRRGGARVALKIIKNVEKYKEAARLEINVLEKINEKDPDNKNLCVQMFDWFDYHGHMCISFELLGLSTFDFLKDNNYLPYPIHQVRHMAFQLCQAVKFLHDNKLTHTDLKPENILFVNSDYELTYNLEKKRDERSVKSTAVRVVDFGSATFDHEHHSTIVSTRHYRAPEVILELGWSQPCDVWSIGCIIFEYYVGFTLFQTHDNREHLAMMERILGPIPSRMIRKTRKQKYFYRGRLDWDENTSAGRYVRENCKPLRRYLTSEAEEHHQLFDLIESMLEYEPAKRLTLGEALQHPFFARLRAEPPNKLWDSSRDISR

ΔTm [°C]	Compound
-0.6	Clc1ccc(Nc2nnc(Cc3ccncc3)c3ccccc23)cc1
0.3	Nc1nccc(-c2c(-c3ccc(F)cc3)ncn2C2CCNCC2)n1

Compound	ΔTm [°C]
CN1CCC(Nc2ncc3ncnc(Nc4ccc(F)c(Cl)c4)c3n2)CC1 [FALNIDAMOL]	4.2

target: Calcium/calmodulin-dependent protein kinase type II subunit delta (Homo sapiens) (UniProt Q13557)
Sequence (Q13557 whole entry): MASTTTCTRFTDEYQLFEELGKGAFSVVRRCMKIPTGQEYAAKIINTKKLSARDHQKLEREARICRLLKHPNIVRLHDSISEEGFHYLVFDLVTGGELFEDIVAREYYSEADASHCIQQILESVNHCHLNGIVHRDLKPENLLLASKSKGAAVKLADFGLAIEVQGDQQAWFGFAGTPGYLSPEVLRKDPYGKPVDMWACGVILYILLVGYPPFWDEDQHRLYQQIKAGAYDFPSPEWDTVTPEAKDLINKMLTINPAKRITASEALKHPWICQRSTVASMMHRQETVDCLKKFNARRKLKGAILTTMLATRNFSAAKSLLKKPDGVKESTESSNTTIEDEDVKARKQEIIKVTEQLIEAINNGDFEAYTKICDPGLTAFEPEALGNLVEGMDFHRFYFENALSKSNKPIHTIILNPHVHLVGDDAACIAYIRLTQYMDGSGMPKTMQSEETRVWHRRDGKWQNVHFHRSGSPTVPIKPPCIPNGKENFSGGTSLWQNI

ΔTm [°C]	Compound
-0.4	Clc1ccc(Nc2nnc(Cc3ccncc3)c3ccccc23)cc1
0.2	Nc1nccc(-c2c(-c3ccc(F)cc3)ncn2C2CCNCC2)n1

Compound	ΔTm [°C]
CN1CCC(Nc2ncc3ncnc(Nc4ccc(F)c(Cl)c4)c3n2)CC1 [FALNIDAMOL]	0.5

target: Cyclin-dependent kinase 2 (Homo sapiens, UniProt P24941)

ΔTm [°C]	Compound
-0.5	Clc1ccc(Nc2nnc(Cc3ccncc3)c3ccccc23)cc1
-0.8	Nc1nccc(-c2c(-c3ccc(F)cc3)ncn2C2CCNCC2)n1

Compound	ΔTm [°C]
CN1CCC(Nc2ncc3ncnc(Nc4ccc(F)c(Cl)c4)c3n2)CC1 [FALNIDAMOL]	0.1

target: Death-associated protein kinase 3 (Homo sapiens) (UniProt O43293)
Sequence (O43293 whole entry, looked up): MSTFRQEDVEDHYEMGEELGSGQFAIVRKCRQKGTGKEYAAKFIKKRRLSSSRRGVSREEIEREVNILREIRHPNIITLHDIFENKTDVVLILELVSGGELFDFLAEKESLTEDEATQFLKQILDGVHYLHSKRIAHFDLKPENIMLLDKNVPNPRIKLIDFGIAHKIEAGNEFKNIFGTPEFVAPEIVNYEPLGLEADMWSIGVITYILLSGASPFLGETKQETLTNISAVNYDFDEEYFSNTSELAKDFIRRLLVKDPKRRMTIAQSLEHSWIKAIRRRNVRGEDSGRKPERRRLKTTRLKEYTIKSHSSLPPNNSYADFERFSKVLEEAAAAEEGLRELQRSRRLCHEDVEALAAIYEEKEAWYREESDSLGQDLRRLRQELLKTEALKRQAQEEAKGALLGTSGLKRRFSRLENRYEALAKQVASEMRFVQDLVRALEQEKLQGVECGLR

Compound	ΔTm [°C]
Clc1ccc(Nc2nnc(Cc3ccncc3)c3ccccc23)cc1	0
Nc1nccc(-c2c(-c3ccc(F)cc3)ncn2C2CCNCC2)n1	0.8
CN1CCC(Nc2ncc3ncnc(Nc4ccc(F)c(Cl)c4)c3n2)CC1 [FALNIDAMOL]	0.3

target: T4, Myotonin-protein kinase (Homo sapiens) (UniProt Q09013)
T4 sequence (whole entry): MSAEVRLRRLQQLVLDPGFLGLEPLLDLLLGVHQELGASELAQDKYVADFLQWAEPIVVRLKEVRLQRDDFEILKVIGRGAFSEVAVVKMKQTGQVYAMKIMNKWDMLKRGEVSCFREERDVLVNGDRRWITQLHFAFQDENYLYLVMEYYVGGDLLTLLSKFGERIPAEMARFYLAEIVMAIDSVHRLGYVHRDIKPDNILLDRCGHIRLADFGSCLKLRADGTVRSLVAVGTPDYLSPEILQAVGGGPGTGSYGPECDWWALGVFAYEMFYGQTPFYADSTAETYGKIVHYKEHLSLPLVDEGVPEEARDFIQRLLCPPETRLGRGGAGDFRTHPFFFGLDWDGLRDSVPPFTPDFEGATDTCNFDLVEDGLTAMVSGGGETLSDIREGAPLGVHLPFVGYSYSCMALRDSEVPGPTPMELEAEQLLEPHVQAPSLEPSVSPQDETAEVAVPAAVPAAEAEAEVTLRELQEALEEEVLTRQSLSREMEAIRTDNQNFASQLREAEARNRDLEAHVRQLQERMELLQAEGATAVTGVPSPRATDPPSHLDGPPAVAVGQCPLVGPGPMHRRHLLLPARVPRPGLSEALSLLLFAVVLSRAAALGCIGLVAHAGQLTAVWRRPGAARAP

ΔTm [°C]	Compound
-0.5	Clc1ccc(Nc2nnc(Cc3ccncc3)c3ccccc23)cc1
0.6	Nc1nccc(-c2c(-c3ccc(F)cc3)ncn2C2CCNCC2)n1

Compound	ΔTm [°C]
CN1CCC(Nc2ncc3ncnc(Nc4ccc(F)c(Cl)c4)c3n2)CC1 [FALNIDAMOL]	1.4

target: Serine/threonine-protein kinase pim-2 (Homo sapiens, UniProt Q9P1W9)
Sequence (Q9P1W9 whole entry, looked up): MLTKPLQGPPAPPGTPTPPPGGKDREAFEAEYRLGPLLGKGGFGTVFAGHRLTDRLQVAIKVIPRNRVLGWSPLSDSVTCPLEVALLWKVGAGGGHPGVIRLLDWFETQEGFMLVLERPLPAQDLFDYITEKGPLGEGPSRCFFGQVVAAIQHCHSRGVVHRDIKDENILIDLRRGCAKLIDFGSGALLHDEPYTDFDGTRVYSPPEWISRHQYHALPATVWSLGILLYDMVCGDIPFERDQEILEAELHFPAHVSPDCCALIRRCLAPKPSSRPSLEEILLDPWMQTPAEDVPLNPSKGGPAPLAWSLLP

ΔTm [°C]	Compound
-0.3	Clc1ccc(Nc2nnc(Cc3ccncc3)c3ccccc23)cc1
0.2	Nc1nccc(-c2c(-c3ccc(F)cc3)ncn2C2CCNCC2)n1

Compound	ΔTm [°C]
CN1CCC(Nc2ncc3ncnc(Nc4ccc(F)c(Cl)c4)c3n2)CC1 [FALNIDAMOL]	0.1

target: Mitogen-activated protein kinase 11 (Homo sapiens, UniProt Q15759)

Compound	ΔTm [°C]
Clc1ccc(Nc2nnc(Cc3ccncc3)c3ccccc23)cc1	0.5
CN1CCC(Nc2ncc3ncnc(Nc4ccc(F)c(Cl)c4)c3n2)CC1 [FALNIDAMOL]	0
